According to ChEMBL document CHEMBL5241059, “Evolution in non-peptide α-helix mimetics on the road to effective protein-protein interaction modulators” (Eur J Med Chem, 2021):
Blank lines part the entries; values can stand above or below the molecule they belong to.

Key:
[1] = molecular target: HIF1A/p300/CREB-binding protein (Homo sapiens, UniProt Q09472+Q16665+Q92793); assay: Binding affinity to hypoxia induced HIF-1 alpha/P300 CH1 domain (323 to 423 residues expressed in Escherichia coli (DE3)/CBP (unknown origin) interaction assessed as dissociation constant
MDA-MB-231 = assay: Antitumor activity against human MDA-MB-231 cells xenografted in mouse assessed reduction in tumor volume measured for 30 days relative to control; type: functional; design: scale not given: the % may be the effect or the level left; conditions: time 30 day
[2] = system: Human immunodeficiency virus 1; assay: Antiviral activity against HIV1 RRE-Rev assessed as inhibition of viral replication; type: functional, organism-based
N2a [3] = assay: Cytotoxicity against mouse N2a cells; type: functional, cell-based
[4] = molecular target: T1, Amyloid-beta precursor protein (Homo sapiens, UniProt P05067); assay: Binding affinity to amyloid beta 40 (unknown origin) by ITC method
T1 sequence (P05067 whole entry): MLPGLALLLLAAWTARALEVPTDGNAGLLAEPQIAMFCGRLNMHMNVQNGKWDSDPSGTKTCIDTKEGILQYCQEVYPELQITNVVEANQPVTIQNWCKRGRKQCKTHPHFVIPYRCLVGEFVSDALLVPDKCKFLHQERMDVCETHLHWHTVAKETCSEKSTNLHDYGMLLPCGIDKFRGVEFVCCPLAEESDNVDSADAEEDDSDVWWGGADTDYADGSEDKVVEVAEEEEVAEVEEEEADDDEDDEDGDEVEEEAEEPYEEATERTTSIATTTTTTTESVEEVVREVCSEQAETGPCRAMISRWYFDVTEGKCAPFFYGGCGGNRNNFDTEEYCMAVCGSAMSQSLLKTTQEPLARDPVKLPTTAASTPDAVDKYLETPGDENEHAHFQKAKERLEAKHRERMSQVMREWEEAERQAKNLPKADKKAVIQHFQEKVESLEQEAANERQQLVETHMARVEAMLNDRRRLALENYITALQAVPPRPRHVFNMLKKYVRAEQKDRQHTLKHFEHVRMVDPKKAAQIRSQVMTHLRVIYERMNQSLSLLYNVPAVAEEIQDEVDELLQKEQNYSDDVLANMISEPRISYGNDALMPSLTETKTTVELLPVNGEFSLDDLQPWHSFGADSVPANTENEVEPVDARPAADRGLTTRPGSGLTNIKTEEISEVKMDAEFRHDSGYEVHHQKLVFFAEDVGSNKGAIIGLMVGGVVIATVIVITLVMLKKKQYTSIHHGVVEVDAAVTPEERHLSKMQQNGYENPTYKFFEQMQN

Trypanothione reductase = Trypanothione reductase (Leishmania infantum, UniProt A4HSF7); assay: Inhibition of Leishmania infantum TryR oxidoreductase activity expressed in Escherichia coli BL21 (DE3) using TS2 and NADPH as substrate by incubated for 10 mins followed by substrate addition by DTNB-reagent based spectrophotometric method
Sequence of Trypanothione reductase (A4HSF7 whole entry): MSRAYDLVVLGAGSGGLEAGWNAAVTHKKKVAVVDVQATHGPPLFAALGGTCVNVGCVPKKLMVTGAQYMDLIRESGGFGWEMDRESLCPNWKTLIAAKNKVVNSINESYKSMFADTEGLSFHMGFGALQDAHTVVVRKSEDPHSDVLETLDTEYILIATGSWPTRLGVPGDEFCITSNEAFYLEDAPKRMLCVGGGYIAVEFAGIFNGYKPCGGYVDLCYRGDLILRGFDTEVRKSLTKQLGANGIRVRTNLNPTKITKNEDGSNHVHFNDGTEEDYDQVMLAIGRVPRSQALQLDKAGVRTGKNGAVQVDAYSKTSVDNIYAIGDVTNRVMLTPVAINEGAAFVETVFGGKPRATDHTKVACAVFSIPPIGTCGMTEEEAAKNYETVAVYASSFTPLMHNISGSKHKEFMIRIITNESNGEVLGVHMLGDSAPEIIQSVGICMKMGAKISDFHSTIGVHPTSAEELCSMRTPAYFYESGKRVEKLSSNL

[5] = molecular target: T1, Amyloid-beta precursor protein; assay: Binding affinity to amyloid beta 42 (unknown origin) assessed as dissociation constant
N2a [6] = assay: Effect on mouse N2a cells assessed as rescue of amyloid beta toxicity; type: functional, cell-based
[7] = molecular target: T2, Islet amyloid polypeptide (Homo sapiens) (UniProt P10997); assay: Disruption of beta-fibrillation of IAPP (unknown origin) assessed as half life of protein
T2 sequence (whole entry): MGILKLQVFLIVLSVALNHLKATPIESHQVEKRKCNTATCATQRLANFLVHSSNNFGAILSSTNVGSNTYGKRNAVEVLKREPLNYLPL

[8] = molecular target: T3, Induced myeloid leukemia cell differentiation protein Mcl-1 (Homo sapiens, UniProt Q07820); assay: Displacement of fluorescein tagged Bak BH3 peptide from MCL-1 (172 to 327 residues) (unknown origin) by fluorescence polarization competition assay
T3 sequence (Q07820 whole entry, the tested form may be a part): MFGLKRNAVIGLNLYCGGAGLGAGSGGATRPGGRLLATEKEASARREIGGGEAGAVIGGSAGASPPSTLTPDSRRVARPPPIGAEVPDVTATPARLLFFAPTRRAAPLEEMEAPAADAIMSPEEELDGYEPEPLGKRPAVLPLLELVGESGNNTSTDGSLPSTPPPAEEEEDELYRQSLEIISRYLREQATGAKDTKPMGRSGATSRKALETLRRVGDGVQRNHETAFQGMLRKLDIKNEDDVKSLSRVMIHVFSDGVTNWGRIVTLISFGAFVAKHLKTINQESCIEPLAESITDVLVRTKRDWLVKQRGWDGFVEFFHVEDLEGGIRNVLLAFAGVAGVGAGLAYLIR

[9] = Inhibition of Mcl-1/NoxaB (unknown origin) protein-protein interaction; design: species or system Homo sapiens
[10] = molecular target: Tumour suppressor p53/oncoprotein Mdm2 (Homo sapiens, UniProt Q00987); assay: Inhibition of HDM2-p53 (unknown origin) protein-protein interaction; type: protein assay
Sequence of Tumour suppressor p53/oncoprotein Mdm2 (P04637 whole entry): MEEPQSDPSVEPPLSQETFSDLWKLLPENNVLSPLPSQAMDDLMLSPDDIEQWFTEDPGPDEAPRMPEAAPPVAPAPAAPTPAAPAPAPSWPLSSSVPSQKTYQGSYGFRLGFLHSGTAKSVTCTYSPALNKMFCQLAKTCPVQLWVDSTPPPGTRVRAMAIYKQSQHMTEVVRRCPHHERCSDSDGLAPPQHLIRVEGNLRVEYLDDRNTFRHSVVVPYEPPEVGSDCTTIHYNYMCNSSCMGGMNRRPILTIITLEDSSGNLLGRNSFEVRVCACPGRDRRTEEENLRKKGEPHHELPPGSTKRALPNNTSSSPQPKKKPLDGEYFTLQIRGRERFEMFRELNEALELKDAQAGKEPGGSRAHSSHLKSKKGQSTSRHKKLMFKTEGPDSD
Sequence of Tumour suppressor p53/oncoprotein Mdm2 (Q00987 whole entry): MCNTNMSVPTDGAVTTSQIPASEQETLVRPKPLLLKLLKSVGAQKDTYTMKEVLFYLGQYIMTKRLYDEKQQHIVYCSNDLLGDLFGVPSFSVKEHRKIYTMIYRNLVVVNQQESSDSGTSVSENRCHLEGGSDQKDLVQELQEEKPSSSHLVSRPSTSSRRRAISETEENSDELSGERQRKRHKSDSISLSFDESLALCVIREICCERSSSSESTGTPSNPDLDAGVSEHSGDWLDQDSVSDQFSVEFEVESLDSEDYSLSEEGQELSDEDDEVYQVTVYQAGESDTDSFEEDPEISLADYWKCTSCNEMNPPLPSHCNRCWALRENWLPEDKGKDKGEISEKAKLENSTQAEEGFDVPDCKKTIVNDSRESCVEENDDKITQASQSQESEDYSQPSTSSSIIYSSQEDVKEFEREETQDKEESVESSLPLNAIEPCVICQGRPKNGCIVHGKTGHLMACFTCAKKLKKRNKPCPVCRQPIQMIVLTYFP

[11] = molecular target: T3, Induced myeloid leukemia cell differentiation protein Mcl-1; assay: Inhibition of FITC-labeled BH3 peptide binding to MCL1 (unknown origin)
[12] = system: Human immunodeficiency virus 1; assay: Antiviral activity against HIV-1 pseudotyped virus expressing HXB-2 proteins infected in human TZM-bl cells assessed as inhibition of viral entry by luciferase based analysis; type: functional, organism-based; conditions: Human immunodeficiency virus 1, TZM-bl
[13] = Binding affinity to TAR RNA assessed as dissociation constant
[14] = molecular target: T3, Induced myeloid leukemia cell differentiation protein Mcl-1; assay: Binding affinity to fluorescent-labeled BH3 peptide from GST tagged MCL1 (172 to 320 residues) (unknown origin) expressed in Escherichia coli BL21 (DE3) incubated for 15 mins by fluorescence polarization-based competitive binding assay
[15] = Binding affinity to RNA S protein (unknown origin) assessed as dissociation constant by ITC method; design: species or system Homo sapiens
[16] = molecular target: Histone acetyltransferase p300/Hypoxia-inducible factor 1-alpha (Homo sapiens, UniProt Q09472+Q16665); assay: Inhibition of hypoxia-induced HIF1alpha/P300 interaction (unknown origin) incubated for 30 mins for fluorescence anisotropy competition assay; type: protein-complex assay
[17] = molecular target: T3, Induced myeloid leukemia cell differentiation protein Mcl-1; assay: Displacement of fluorescent-labeled BH3 peptide from recombinant MCL1 (unknown origin) by fluorescence polarization-based competitive binding assay
[18] = molecular target: Myc proto-oncogene protein (Homo sapiens, UniProt P01106); assay: Binding affinity to c-MYC (unknown origin) assessed as dissociation constant
Sequence of Myc proto-oncogene protein (P01106 whole entry): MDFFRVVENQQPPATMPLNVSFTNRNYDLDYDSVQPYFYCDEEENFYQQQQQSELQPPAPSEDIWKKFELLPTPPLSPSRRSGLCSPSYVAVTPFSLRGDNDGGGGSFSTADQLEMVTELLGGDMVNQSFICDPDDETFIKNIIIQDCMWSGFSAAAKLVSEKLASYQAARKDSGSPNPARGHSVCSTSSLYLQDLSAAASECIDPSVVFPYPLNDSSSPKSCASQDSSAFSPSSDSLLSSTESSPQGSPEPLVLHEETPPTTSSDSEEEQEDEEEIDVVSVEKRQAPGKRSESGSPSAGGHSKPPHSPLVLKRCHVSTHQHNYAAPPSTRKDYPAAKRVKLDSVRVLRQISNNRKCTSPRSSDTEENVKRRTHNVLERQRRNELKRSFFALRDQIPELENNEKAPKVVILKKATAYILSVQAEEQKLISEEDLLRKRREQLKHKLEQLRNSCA

SJSA-1 = assay: cells; conditions: Homo sapiens

SMILES: CC(C)C[C@@H]1NCCN([C@@H](CC(C)C)C(=O)N2CCN([C@@H](CCC(N)=O)C(N)=O)C(=O)[C@@H]2C)C1=O
Kd [1]: 5.3 µM
Activity (MDA-MB-231): 50%

SMILES: Cc1cc(-c2cc(CCN)ccc2CCN)c(C)cc1-c1cc(CCN)ccc1CCN
IC50 [2]: 47 µM

SMILES: NCCCOc1nc(C(=O)O)ccc1NC(=O)c1ccc(NC(=O)c2ccc([N+](=O)[O-])c(OCc3ccccc3)n2)c(OCCCN)n1
IC50 (N2a [3]): 1.4 µM
Kd [4]: 0.7 µM

SMILES: CCC(C)Oc1cc(C(=O)Nc2cccc3c(OCC(=O)O)cc(C(=O)OC)nc23)nc2c(NC(=O)c3cc(OCC(=O)O)c4cccc(NC(=O)c5cc(OC(C)CC)c6cccc([N+](=O)[O-])c6n5)c4n3)cccc12 (stereo not drawn)
Kd [5]: 2.2 µM
IC50 (N2a [6]): 3 µM

SMILES: CCCc1c(NC(=O)Nc2sccc2CCC(=O)O)ccc2sc(N(CCC(=O)O)C(=O)OCC)nc12
T1/2 [7]: 23.1 h

SMILES: COc1cc(CCN)c(-c2cc(C)c(-c3cc(CCN)c(OC)cc3CCN)cc2C)cc1CCN
IC50 [2]: 14 µM

SMILES: NCCCOc1nc(C(=O)O)ccc1NC(=O)c1ccc(NC(=O)c2ccc([N+](=O)[O-])c(OCCCN)n2)c(OCCCN)n1
IC50 [12]: 25 µM
Kd [13]: 4.1 µM

SMILES: Oc1ccc(CCNc2nc3nc(n2)N2CCN(CC2Cc2ccccc2)c2nc(nc(Nc4ccc(Oc5ccccc5)cc4)n2)NCCOCCOCCOCCOCCN3)cc1 (stereo not drawn)
Ki [17]: 2.6 µM

SMILES: Oc1ccc(CCNc2nc3nc(n2)N2CCN(CC2Cc2ccccc2)c2nc(nc(Nc4ccc(Oc5ccccc5)cc4)n2)NCCOCCOCCOCCN3)cc1 (stereo not drawn)
Ki [17]: 2.6 µM

SMILES: CC(C)COc1nc(C(=O)Nc2ccc(C(=O)Nc3ccc(C(=O)Nc4ccc(C(=O)O)nc4OCC(=O)O)nc3OCC(=O)O)nc2OCc2ccccc2)ccc1[N+](=O)[O-]
IC50 (N2a [3]): 2.5 µM

SMILES: CC(C)[C@@H](CS(=O)(=O)C(C)C)N1C(=O)[C@@](C)(CC(=O)O)C[C@H](c2cccc(Cl)c2)[C@H]1c1ccc(Cl)cc1 [NAVTEMADLIN]
IC50 (SJSA-1): 0.025 µM

Results, then the molecule that gave them:

IC50 (Trypanothione reductase): 5.1 µM
SMILES: NCCNCc1cncn1-c1ccc(-c2nc(CCc3ccc4ccccc4c3)cs2)c(OCCN2CNCC2=O)c1

Ki [8]: 2.9 µM
SMILES: Cc1cc(-c2ccc(C(=O)O)c(OCc3ccccc3)c2)cc(C)c1Cl

IC50 [9]: 24 µM
IC50 [10]: 9.3 µM
SMILES: CCC(C)CN(C(=O)c1ccc(N(Cc2ccc3ccccc3c2)C(=O)c2ccc(NCC(C)C)cc2)cc1)c1ccc(C(=O)N[C@H](C(=O)O)[C@H](C)CC)cc1 (stereo partly drawn)

IC50 [11]: 72 µM
SMILES: CC(C)(C)OC(=O)N(Cc1ccccc1)c1nc(NCC(=O)O)c2ncn(Cc3cccc4ccccc34)c2n1

IC50 [9]: > 100 µM
IC50 [10]: 11.9 µM
SMILES: CC(C)Oc1cc(NC(=O)[C@H](Cc2ccccc2)NC(=O)c2ccc(N)c(OCc3ccccc3)c2)ccc1C(=O)NCC(=O)O

IC50 (Trypanothione reductase): 8.6 µM
SMILES: NCCNCc1cncn1-c1ccc(-c2nc(CCc3ccc(-c4ccccc4)cc3)cs2)c(OCCN2CNCC2=O)c1

Ki [14]: 0.53 µM
SMILES: O=C(O)CCCNc1nc(NCCc2ccc(O)cc2)nc(N2CCN(c3nc(NCCC(=O)O)nc(Nc4ccc(Oc5ccccc5)cc4)n3)CC2Cc2ccccc2)n1 (stereo not drawn)

Kd [15]: 1.85 µM
SMILES: CC(C)Oc1cc(NC(=O)[C@H](Cc2ccccc2)NC(=O)c2ccc(N)c(OCc3ccc(Cl)cc3)c2)ccc1C(=O)NCC(=O)O

IC50 [16]: 9.2 µM
SMILES: CC(C)COc1cc(C(=O)Nc2ccc(C(=O)O)cc2OC(C)C)ccc1NC(=O)c1ccc([N+](=O)[O-])c(OCC(C)C)c1

Kd [18]: 10 µM
SMILES: CC(C)COc1cc(C(=O)O)ccc1NC(=O)c1ccc([N+](=O)[O-])c(OCc2ccc3ccccc3c2)c1

IC50 [10]: 15 µM
SMILES: CC(C)C[C@H](NC(=O)c1ccc(NC(=O)[C@@H](N)Cc2ccccc2)c(OCCc2c[nH]c3ccccc23)c1)C(=O)O
